These results are taken from US12441703B2, “Carboxamides as modulators of sodium channels” (VERTEX PHARMACEUTICALS INCORPORATED, priority 2019, dated 2025).

Each structure is given as a SMILES string.

human NaV 1.8, sequence (Q9Y5Y9 whole entry, looked up, the tested form may be a part): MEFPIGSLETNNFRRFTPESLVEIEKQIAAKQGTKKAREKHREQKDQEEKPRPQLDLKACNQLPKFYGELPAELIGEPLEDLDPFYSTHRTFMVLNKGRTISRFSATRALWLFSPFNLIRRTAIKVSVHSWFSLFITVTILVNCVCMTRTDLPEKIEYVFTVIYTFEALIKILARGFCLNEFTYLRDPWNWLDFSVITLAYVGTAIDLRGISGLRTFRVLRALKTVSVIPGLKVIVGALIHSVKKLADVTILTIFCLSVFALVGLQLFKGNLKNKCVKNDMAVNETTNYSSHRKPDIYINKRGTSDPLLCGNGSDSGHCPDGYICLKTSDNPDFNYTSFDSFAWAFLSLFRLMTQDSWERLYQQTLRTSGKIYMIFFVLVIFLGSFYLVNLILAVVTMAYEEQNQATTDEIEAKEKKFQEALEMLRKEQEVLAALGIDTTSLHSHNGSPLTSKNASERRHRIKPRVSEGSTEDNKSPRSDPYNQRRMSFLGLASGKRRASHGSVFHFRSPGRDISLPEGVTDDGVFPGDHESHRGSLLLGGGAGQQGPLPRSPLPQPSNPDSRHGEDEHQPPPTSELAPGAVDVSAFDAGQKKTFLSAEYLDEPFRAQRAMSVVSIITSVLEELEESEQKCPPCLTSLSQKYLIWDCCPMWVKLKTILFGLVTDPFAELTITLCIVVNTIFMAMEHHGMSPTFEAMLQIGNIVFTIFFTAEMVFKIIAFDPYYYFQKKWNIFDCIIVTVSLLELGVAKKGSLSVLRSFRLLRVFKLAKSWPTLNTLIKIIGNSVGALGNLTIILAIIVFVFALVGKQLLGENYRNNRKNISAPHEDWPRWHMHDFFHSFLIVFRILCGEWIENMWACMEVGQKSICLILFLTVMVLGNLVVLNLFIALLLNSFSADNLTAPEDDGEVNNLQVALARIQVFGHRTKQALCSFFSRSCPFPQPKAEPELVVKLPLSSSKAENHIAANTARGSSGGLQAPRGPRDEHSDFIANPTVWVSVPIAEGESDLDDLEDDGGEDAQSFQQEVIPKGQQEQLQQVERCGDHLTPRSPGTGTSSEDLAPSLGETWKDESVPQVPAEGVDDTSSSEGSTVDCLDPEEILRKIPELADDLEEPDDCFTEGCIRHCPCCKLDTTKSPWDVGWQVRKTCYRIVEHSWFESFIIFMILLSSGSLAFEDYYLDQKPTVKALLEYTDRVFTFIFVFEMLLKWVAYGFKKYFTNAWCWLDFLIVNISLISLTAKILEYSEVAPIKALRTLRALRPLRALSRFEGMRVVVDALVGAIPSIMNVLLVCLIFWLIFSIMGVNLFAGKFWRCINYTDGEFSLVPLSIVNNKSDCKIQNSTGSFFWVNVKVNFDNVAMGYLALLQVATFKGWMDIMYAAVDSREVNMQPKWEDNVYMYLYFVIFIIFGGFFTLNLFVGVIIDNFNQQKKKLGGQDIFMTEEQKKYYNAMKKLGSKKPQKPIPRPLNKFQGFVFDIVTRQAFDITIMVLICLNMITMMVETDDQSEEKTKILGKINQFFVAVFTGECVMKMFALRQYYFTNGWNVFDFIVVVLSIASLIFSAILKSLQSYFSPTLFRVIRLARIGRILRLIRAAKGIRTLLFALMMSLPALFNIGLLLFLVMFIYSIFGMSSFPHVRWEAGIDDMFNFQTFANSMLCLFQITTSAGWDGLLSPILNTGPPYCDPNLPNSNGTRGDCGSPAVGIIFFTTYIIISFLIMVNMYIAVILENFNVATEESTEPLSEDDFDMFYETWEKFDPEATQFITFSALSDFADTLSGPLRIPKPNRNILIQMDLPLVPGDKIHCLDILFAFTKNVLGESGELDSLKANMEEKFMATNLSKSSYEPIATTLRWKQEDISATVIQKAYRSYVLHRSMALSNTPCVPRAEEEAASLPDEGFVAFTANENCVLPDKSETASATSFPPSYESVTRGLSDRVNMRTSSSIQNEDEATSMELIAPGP

This assay addresses human NaV 1.8 (Homo sapiens, UniProt Q9Y5Y9). The experiment in a line: E-VIPR assay for detecting and measuring NaV inhibition properties. The settings on record: E-VIPR assay conducted in the presence of human serum; HEK cells expressing truncated human NaV 1.8; read-out: IC50. The assay is classed as cell-based. In short, it runs like this:
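HEK cells with truncated human NaV1.8 plus KIR2.1 BacMam, hexyl dye loaded 20 min, compound 30 min at room temperature, 11-point 3-fold series […], 0.625% DMSO, with or without human serum. E-VIPR biphasic stimulation at 10 Hz for 10 s; membrane-potential response read as normalized coumarin/oxonol ratio.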
As a reminder, the IC50 is the concentration needed to halve the response being measured. Regarding `COc1cc(OC(F)(F)F)ccc1Oc1cc(C(F)(F)F)c(C2CC2)nc1C(=O)Nc1ccnc(C(N)=O)c1` [Compound 246, N-(2-carbamoyl-4-pyridyl)-6-cyclopropyl-3-[2-methoxy-4-(trifluoromethoxy)phenoxy]-5-(trifluoromethyl)pyridine-2-carboxamide], the IC50 is 140 nM. Regarding `COc1cc(OC(F)(F)F)ccc1Oc1cc(C(F)(F)F)c(C)nc1C(=O)Nc1ccnc(C(N)=O)c1` [Compound 247, N-(2-carbamoyl-4-pyridyl)-3-[2-methoxy-4-(trifluoromethoxy)phenoxy]-6-methyl-5-(trifluoromethyl)pyridine-2-carboxamide], the IC50 was determined as 190 nM. On to `COc1cc(OC(F)(F)F)ccc1Oc1cc(C2CC2)cc(C)c1C(=O)Nc1ccnc(C(N)=O)c1` [Compound 248, 4-[[4-cyclopropyl-2-[2-methoxy-4-(trifluoromethoxy)phenoxy]-6-methyl-benzoyl]amino]pyridine-2-carboxamide], for which the IC50 was determined as 27 nM. For the compound `NC(=O)c1cc(NC(=O)c2c(Oc3ccc(OC(F)(F)F)cc3O)ccc(C(F)(F)F)c2F)cc[n+]1[O-]` [Compound 249, 4-[[2-fluoro-6-[2-hydroxy-4-(trifluoromethoxy)phenoxy]-3-(trifluoromethyl)benzoyl]amino]-1-oxido-pyridin-1-ium-2-carboxamide], the IC50 stood at 2930 nM. Turning to `NC(=O)c1cc(NC(=O)c2c(-c3ccc(OC(F)(F)F)cc3)ccc(C(F)(F)F)c2F)ccn1` [Compound 250, 4-[[2-fluoro-6-[4-(trifluoromethoxy)phenyl]-3-(trifluoromethyl)benzoyl]amino]pyridine-2-carboxamide], the IC50 is greater than 3000 nM. As to `COc1cc(F)ccc1-c1ccc(C(F)(F)F)c(F)c1C(=O)Nc1ccnc(C(N)=O)c1` [Compound 251, 4-[[2-fluoro-6-(4-fluoro-2-methoxy-phenyl)-3-(trifluoromethyl)benzoyl]amino]pyridine-2-carboxamide], the IC50 was greater than 3000 nM. With `COc1cc(F)ccc1-c1ccc(C(F)(F)F)cc1C(=O)Nc1ccnc(C(N)=O)c1` [Compound 252, 4-[[2-(4-fluoro-2-methoxy-phenyl)-5-(trifluoromethyl)benzoyl]amino]pyridine-2-carboxamide], the IC50 was greater than 3000 nM.

On to `COc1cc(F)ccc1-c1ccc(C(F)(F)F)cc1C(=O)Nc1ccc(F)c(C(N)=O)c1` [Compound 253, N-(3-carbamoyl-4-fluoro-phenyl)-2-(4-fluoro-2-methoxy-phenyl)-5-(trifluoromethyl)benzamide], for which the IC50 was greater than 3000 nM.

Turning to `NC(=O)c1cc(NC(=O)c2ccc(C(F)(F)F)cc2-c2ccc(OC(F)(F)F)cc2)ccn1` [Compound 254, 4-[[2-[4-(trifluoromethoxy)phenyl]-4-(trifluoromethyl)benzoyl]amino]pyridine-2-carboxamide], the IC50 is greater than 3000 nM. In the case of `COc1cc(OC(F)(F)F)ccc1Oc1cc(C(F)(F)F)cc(Br)c1C(=O)Nc1ccnc(C(N)=O)c1` [Compound 255, 4-[[2-bromo-6-[2-methoxy-4-(trifluoromethoxy)phenoxy]-4-(trifluoromethyl)benzoyl]amino]pyridine-2-carboxamide], the IC50 is greater than 3000 nM.

Regarding `NC(=O)c1cc(NC(=O)c2cc(Cl)ccc2Oc2ccc(OC(F)(F)F)cn2)ccc1F` [Compound 256, 5-[[5-chloro-2-[[5-(trifluoromethoxy)-2-pyridyl]oxy]benzoyl]amino]-2-fluoro-benzamide], the IC50 is greater than 3000 nM. Regarding `COc1cc(OC(F)(F)F)ccc1Oc1ccc(C2CCC2)c(C)c1C(=O)Nc1ccnc(C(N)=O)c1` [Compound 257, 4-[[3-cyclobutyl-6-[2-methoxy-4-(trifluoromethoxy)phenoxy]-2-methyl-benzoyl]amino]pyridine-2-carboxamide], the IC50 is 8 nM. Turning to `COc1c(C(F)(F)F)ccc(Oc2cccc(C3CCCCC3)c2)c1C(=O)Nc1ccnc(C(N)=O)c1` [Compound 258, 4-[[6-(3-cyclohexylphenoxy)-2-methoxy-3-(trifluoromethyl)benzoyl]amino]pyridine-2-carboxamide], the IC50 was greater than 3000 nM. With `COc1cc(OC(F)(F)F)ccc1Oc1ccc(F)c(F)c1C(=O)Nc1ccnc(C(N)=O)c1` [Compound 259, 4-[[2,3-difluoro-6-[2-methoxy-4-(trifluoromethoxy)phenoxy]benzoyl]amino]pyridine-2-carboxamide], the IC50 is 59 nM. Next, `COc1cc(OC(F)(F)F)ccc1Oc1ccc(F)c(F)c1C(=O)Nc1cc(C(N)=O)ncc1C` [Compound 260, 4-[[2,3-difluoro-6-[2-methoxy-4-(trifluoromethoxy)phenoxy]benzoyl]amino]-5-methyl-pyridine-2-carboxamide]: 66 nM. As to `COc1cc(OC(F)(F)F)ccc1Oc1ccc(Cl)c(C)c1C(=O)Nc1ccnc(C(N)=O)c1` [Compound 261, 4-[[3-chloro-6-[2-methoxy-4-(trifluoromethoxy)phenoxy]-2-methyl-benzoyl]amino]pyridine-2-carboxamide], the IC50 turned out to be 8 nM. Next, `COc1cc(OC(F)(F)F)ccc1Oc1cc(F)c(F)c(F)c1C(=O)Nc1cnc(C(N)=O)nc1` [Compound 262, 5-[[2,3,4-trifluoro-6-[2-methoxy-4-(trifluoromethoxy)phenoxy]benzoyl]amino]pyrimidine-2-carboxamide]: 50 nM; `COc1cc(OC(F)(F)F)ccc1Oc1cc(OC)c(F)c(F)c1C(=O)Nc1ccnc(C(N)=O)c1` [Compound 263, 4-[[2,3-difluoro-4-methoxy-6-[2-methoxy-4-(trifluoromethoxy)phenoxy]benzoyl]amino]pyridine-2-carboxamide]: 20 nM; `COc1cc(OC(F)(F)F)ccc1Oc1cc(C2CC2)c(F)c(C)c1C(=O)Nc1ccnc(C(N)=O)c1` [Compound 264, 4-[[4-cyclopropyl-3-fluoro-6-[2-methoxy-4-(trifluoromethoxy)phenoxy]-2-methyl-benzoyl]amino]pyridine-2-carboxamide]: 52 nM. Next, `COc1cc(OC(F)(F)F)ccc1Oc1cc(OC)c(Cl)c(C)c1C(=O)Nc1ccnc(C(N)=O)c1` [Compound 265, 4-[[3-chloro-4-methoxy-6-[2-methoxy-4-(trifluoromethoxy)phenoxy]-2-methyl-benzoyl]amino]pyridine-2-carboxamide]: 35 nM. With `COc1cc(OC(F)(F)F)ccc1Oc1cc(OC)c(Cl)c(F)c1C(=O)Nc1ccnc(C(N)=O)c1` [Compound 266, 4-[[3-chloro-2-fluoro-4-methoxy-6-[2-methoxy-4-(trifluoromethoxy)phenoxy]benzoyl]amino]pyridine-2-carboxamide], the IC50 stood at 2.8 nM. Then `COc1cc(OC(F)(F)F)ccc1Oc1cc(Cl)cc(F)c1C(=O)Nc1cc(C(N)=O)[n+]([O-])cc1C` [Compound 267, 4-[[4-chloro-2-fluoro-6-[2-methoxy-4-(trifluoromethoxy)phenoxy]benzoyl]amino]-5-methyl-1-oxido-pyridin-1-ium-2-carboxamide], with 84 nM. For the compound `COc1cc(OC(F)(F)F)ccc1Oc1ccc(Cl)c(F)c1C(=O)Nc1cc(C(N)=O)[n+]([O-])cc1C` [Compound 268, 4-[[3-chloro-2-fluoro-6-[2-methoxy-4-(trifluoromethoxy)phenoxy]benzoyl]amino]-5-methyl-1-oxido-pyridin-1-ium-2-carboxamide], the IC50 was 28 nM.
